Results: publication PMC10178848, “Modulating fast skeletal muscle contraction protects skeletal muscle in animal models of Duchenne muscular dystrophy” (The Journal of Clinical Investigation, 2023)

Tested on: GRMD plasma proteins
Type: in vivo, dog
Details: EDG-5506 treatment to GRMD baseline; Increased in GRMD

With `O=c1ccc(-c2cnc(OCC(F)(F)F)nc2)nn1Cc1cncc(F)c1` [EDG-5506] the “Change from GRMD Baseline (fraction): Annexin A6 (ANXA6)” value was -0.2759 fraction, the “Change from GRMD Baseline (fraction): Anterior gradient protein 2 homolog (AGR2)” value was -0.0848 fraction and the “Change from GRMD Baseline (fraction): Apolipoprotein E (APOE)” value was -0.1554 fraction. The “Change from GRMD Baseline (fraction): Apolipoprotein E (isoform E3) (APOE)” value was 0.0588 fraction, the “Change from GRMD Baseline (fraction): Apolipoprotein E (isoform E4) (APOE)” value was -0.0389 fraction and the “Change from GRMD Baseline (fraction): Apoptosis regulator Bcl-2 (BCL2)” value was -0.1414 fraction. For the same compound, the “Change from GRMD Baseline (fraction): Artemin (ARTN)” value was -0.0443 fraction, the “Change from GRMD Baseline (fraction): Arylsulfatase B (ARSB)” value was -0.0585 fraction and the “Change from GRMD Baseline (fraction): B-cell receptor CD22 (CD22)” value was -0.1198 fraction. The “Change from GRMD Baseline (fraction): Baculoviral IAP repeat-containing protein 5 (BIRC5)” value was -0.1027 fraction, the “Change from GRMD Baseline (fraction): Basal Cell Adhesion Molecule (BCAM)” value was -0.0829 fraction and the “Change from GRMD Baseline (fraction): Bcl-2-like protein 1 (BCL2L1)” value was -0.0786 fraction. The “Change from GRMD Baseline (fraction): Bone sialoprotein 2 (IBSP)” value was -0.0968 fraction, the “Change from GRMD Baseline (fraction): C-C motif chemokine 13 (CCL13)” value was -0.0908 fraction and the “Change from GRMD Baseline (fraction): C-C motif chemokine 23 (CCL23)” value was -0.0571 fraction. The “Change from GRMD Baseline (fraction): CCAAT/enhancer-binding protein beta (CEBPB)” value was -0.0589 fraction, the “Change from GRMD Baseline (fraction): CD59 glycoprotein (CD59)” value was -0.0497 fraction and the “Change from GRMD Baseline (fraction): Calcineurin (PPP3CA PPP3R1)” value was -0.2961 fraction. The “Change from GRMD Baseline (fraction): Calcineurin subunit B type 1 (PPP3R1)” value was -0.1572 fraction, the “Change from GRMD Baseline (fraction): Calcium/calmodulin-dependent protein kinase type 1 (CAMK1)” value was -0.1284 fraction and the “Change from GRMD Baseline (fraction): Calcium/calmodulin-dependent protein kinase type 1D (CAMK1D)” value was -0.0749 fraction. The “Change from GRMD Baseline (fraction): Calcium/calmodulin-dependent protein kinase type II subunit alpha (CAMK2A)” value was -0.4545 fraction, the “Change from GRMD Baseline (fraction): Calcium/calmodulin-dependent protein kinase type II subunit beta (CAMK2B)” value was -0.4519 fraction and the “Change from GRMD Baseline (fraction): Calcium/calmodulin-dependent protein kinase type II subunit delta (CAMK2D)” value was -0.3407 fraction. For the same compound, the “Change from GRMD Baseline (fraction): Calpain I (CAPN1 CAPNS1)” value was -0.011 fraction, the “Change from GRMD Baseline (fraction): Calpastatin (CAST)” value was -0.036 fraction and the “Change from GRMD Baseline (fraction): Carbonic anhydrase 3 (CA3)” value was -0.4126 fraction. The “Change from GRMD Baseline (fraction): Cardiotrophin-1 (CTF1)” value was -0.0756 fraction, the “Change from GRMD Baseline (fraction): Catalase (CAT)” value was -0.1548 fraction and the “Change from GRMD Baseline (fraction): Choline/ethanolamine kinase (CHKB)” value was -0.0698 fraction. For the same compound, the “Change from GRMD Baseline (fraction): Chymase (CMA1)” value was -0.0479 fraction, the “Change from GRMD Baseline (fraction): Clusterin (CLU)” value was -0.1079 fraction and the “Change from GRMD Baseline (fraction): Complement component C6 (C6)” value was 0.1732 fraction. For the same compound, the “Change from GRMD Baseline (fraction): Complement component C8 (C8A C8B C8G)” value was -0.1065 fraction, the “Change from GRMD Baseline (fraction): Complement factor D (CFD)” value was -0.1183 fraction and the “Change from GRMD Baseline (fraction): Creatine kinase M-type (CKM)” value was -0.3439 fraction. For the same compound, the “Change from GRMD Baseline (fraction): Creatine kinase M-type:Creatine kinase B-type heterodimer (CKB CKM)” value was -0.3657 fraction, the “Change from GRMD Baseline (fraction): Cyclin-dependent kinase inhibitor 1B (CDKN1B)” value was -0.1686 fraction and the “Change from GRMD Baseline (fraction): Cysteine and glycine-rich protein 3 (CSRP3)” value was -0.0108 fraction. For the same compound, the “Change from GRMD Baseline (fraction): Cytochrome c (CYCS)” value was -0.561 fraction, the “Change from GRMD Baseline (fraction): DNA repair protein RAD51 homolog 1 (RAD51)” value was -0.1205 fraction and the “Change from GRMD Baseline (fraction): Desmoglein-1 (DSG1)” value was -0.0821 fraction. For the same compound, the “Change from GRMD Baseline (fraction): Dickkopf-like protein 1 (DKKL1)” value was -0.0601 fraction, the “Change from GRMD Baseline (fraction): Down syndrome cell adhesion molecule (DSCAM)” value was -0.0864 fraction and the “Change from GRMD Baseline (fraction): Dual specificity mitogen-activated protein kinase kinase 1 (MAP2K1)” value was -0.3654 fraction. For the same compound, the “Change from GRMD Baseline (fraction): Dual specificity protein phosphatase 3 (DUSP3)” value was -0.3709 fraction, the “Change from GRMD Baseline (fraction): Dynein light chain roadblock-type 1 (DYNLRB1)” value was -0.5348 fraction and the “Change from GRMD Baseline (fraction): Ectonucleoside triphosphate diphosphohydrolase 1 (ENTPD1)” value was -0.1101 fraction. The “Change from GRMD Baseline (fraction): Endothelin-converting enzyme 1 (ECE1)” value was -0.1039 fraction, the “Change from GRMD Baseline (fraction): Ephrin type-A receptor 1 (EPHA1)” value was -0.0912 fraction and the “Change from GRMD Baseline (fraction): Ephrin type-B receptor 6 (EPHB6)” value was 0.1966 fraction. The “Change from GRMD Baseline (fraction): Epidermal growth factor (EGF)” value was -0.0588 fraction, the “Change from GRMD Baseline (fraction): Epidermal growth factor receptor variant III (EGFR)” value was -0.052 fraction and the “Change from GRMD Baseline (fraction): Erythropoietin receptor (EPOR)” value was -0.0772 fraction. For the same compound, the “Change from GRMD Baseline (fraction): Estrogen receptor (ESR1)” value was -0.0792 fraction, the “Change from GRMD Baseline (fraction): Eukaryotic translation initiation factor 4H (EIF4H)” value was -0.4334 fraction and the “Change from GRMD Baseline (fraction): Eukaryotic translation initiation factor 4 gamma 2 (EIF4G2)” value was -0.3268 fraction. For the same compound, the “Change from GRMD Baseline (fraction): Extracellular matrix protein 1 (ECM1)” value was -0.1471 fraction, the “Change from GRMD Baseline (fraction): Fibroblast growth factor 8 isoform B (FGF8)” value was -0.0878 fraction and the “Change from GRMD Baseline (fraction): Fibroblast growth factor 9 (FGF9)” value was -0.0286 fraction.
